Tests used:
ALK-wt = target: T1, ALK-wt (Homo sapiens, UniProt Q9UM73); experiment: Biochemical kinase assay, ALK-wt kinase domain; details: apparent inhibitory constant, Morrison equation; ATP 2 mM in substrate solution; read-out: ALK-wt Ki^app
T1 construct: purchased Carna 08-518
Protocol: (§1) First, 250 nL of compound dissolved in DMSO (100-fold of the desired concentration) was dispensed into a 384-well plate. A 12.5 μL substrate solution containing ATP (2 mM) and fluorogenic phosphorylation substrate AQT0101 (26 μM for ALK and ROS1, AssayQuant) or AQT0104 (26 μM for TRKA, AssayQuant) in buffer (50 mM HEPES pH 7.5, 0.01% Brij-35, 0.5 mM EGTA, 10 mM MgCl2) was added and mixed thoroughly. Then, a 12.5 μL kinase solution containing ALK-wt (1.5 nM, Carna, 08-518), ALK ALK L1196M/G1202R (3 nM, SignalChem, A19-12NG), ROS1-wt (0.6 nM, Carna, 08-163), ROS1-G2032R (0.5 nM, SignalChem, R14-12BG), or TRKA-wt (1 nM, BPS Bio, 40280) kinase domains in buffer (50 nM HEPES pH 7.5, 0.01% Brij-35, 2% glycerol, 0.4 mg/mL BSA, 0.5 mM EGTA, and 10 mM MgCl2) was added and mixed thoroughly. The plate was sealed and read by SpectraMax Paradigm at λ=485 nm every 2 minutes for 120 minutes at 30° C. Initial rates of reaction (v) were calculated from the change in fluorescence intensity over time during the initial, linear portion of the reaction. Finally, apparent inhibitory constants (Ki^app) were determined from regression of v and I (inhibitor concentration) to Morrison Equation (E=enzyme concentration): […]

[1] = target: T2, Ba/F3 cells CD74-ROS1 wild-type (wt) (Homo sapiens, UniProt P08922); experiment: Ba/F3 cell proliferation assay, CD74-ROS1 wild-type; assay type: cell-based; details: 72 hours, CellTiter-Glo
T2 construct: fusion of the C-terminus of ROS1 with the N-terminus of various partner proteins; host or cells: Ba/F3 (RIKEN), retroviral pMSCV-puro; the other entry of the earlier key: CD74 (P04233, HLA class II histocompatibility antigen gamma chain)
T2 sequence (P08922 1883-2347 limits assumed): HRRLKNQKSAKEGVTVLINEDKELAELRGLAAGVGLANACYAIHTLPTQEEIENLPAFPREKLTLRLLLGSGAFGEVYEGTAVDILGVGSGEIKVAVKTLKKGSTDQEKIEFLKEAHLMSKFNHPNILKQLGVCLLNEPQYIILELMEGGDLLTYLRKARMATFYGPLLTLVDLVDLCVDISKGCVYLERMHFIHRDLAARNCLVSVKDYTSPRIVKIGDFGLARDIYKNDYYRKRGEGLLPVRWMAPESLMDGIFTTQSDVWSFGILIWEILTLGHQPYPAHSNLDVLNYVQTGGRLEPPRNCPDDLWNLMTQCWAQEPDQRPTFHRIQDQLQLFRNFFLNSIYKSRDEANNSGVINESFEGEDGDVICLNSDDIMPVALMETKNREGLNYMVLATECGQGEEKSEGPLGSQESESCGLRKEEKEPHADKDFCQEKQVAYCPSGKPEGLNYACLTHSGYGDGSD
In short: (§2)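 Cells seeded 1 day, then treated with 3-fold compound dilutions for 72 h; viability by CellTiter-Glo luminescence. IC50 from percent inhibition by four-parameter logistic fit.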

[2] = tested on: TPM3-NTRK1-wt IC50 / primary target IC50 (e.g. CD74-ROS1-wt); experiment: TRKA selectivity in Ba/F3 cells (TRKA potency divided by primary target potency); assay type: cell-based; details: for TPM3-NTRK1-wt/CD74-ROS1-G2032R selectivity ratio: TRKA potency / CD74-ROS1-G2032R potency; for TPM3-NTRK1-wt/CD74-ROS1-wt selectivity ratio: TRKA potency / CD74-ROS1-wt potency; for TPM3-NTRK1-wt/EML4-ALK-L1196M-G1202R selectivity ratio: TRKA potency / EML4-ALK-L1196M-G1202R potency; for TPM3-NTRK1-wt/EML4-ALK-wt selectivity ratio: TRKA potency / EML4-ALK-wt potency
Protocol: TRKA selectivity was calculated by dividing a compound's TRKA potency by its primary target potency (e.g. TPM3-NTRK1-wt IC50/CD74-ROS1-wt IC50). Compound selectivity can be interpreted by binning ratio values: bin A for very high selectivity, ratio >30-fold; bin B for high selectivity, ratio >10-fold; bin C for moderate selectivity, ratio ≥1; and bin D for low selectivity, ratio <1. […] (nd=not determined).

ALK L1196M/G1202R = target: T3, ALK L1196M/G1202R (Homo sapiens, UniProt Q9UM73, G1202R/L1196M); experiment: Biochemical kinase assay, ALK L1196M/G1202R kinase domain; details: apparent inhibitory constant, Morrison equation; ATP 2 mM in substrate solution; read-out: ALK-L1196M-G1202R Ki^app
T3 construct: purchased SignalChem A19-12NG
T3 sequence (Q9UM73 1116-1392 L1196M/G1202R limits assumed): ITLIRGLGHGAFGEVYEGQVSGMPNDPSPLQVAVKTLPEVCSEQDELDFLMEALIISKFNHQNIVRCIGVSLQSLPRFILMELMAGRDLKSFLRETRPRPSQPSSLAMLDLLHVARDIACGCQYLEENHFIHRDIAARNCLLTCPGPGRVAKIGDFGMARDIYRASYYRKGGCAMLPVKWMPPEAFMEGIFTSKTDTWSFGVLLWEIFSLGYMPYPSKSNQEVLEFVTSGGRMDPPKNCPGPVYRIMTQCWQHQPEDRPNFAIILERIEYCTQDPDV
Protocol: as §1

ROS1-wt = target: T4, ROS1-wt (Homo sapiens, UniProt P08922); experiment: Biochemical kinase assay, ROS1-wt kinase domain; details: apparent inhibitory constant, Morrison equation; ATP 2 mM in substrate solution; read-out: ROS1-wt Ki^app
T4 construct: purchased Carna 08-163
T4 sequence (P08922 1945-2222 limits assumed): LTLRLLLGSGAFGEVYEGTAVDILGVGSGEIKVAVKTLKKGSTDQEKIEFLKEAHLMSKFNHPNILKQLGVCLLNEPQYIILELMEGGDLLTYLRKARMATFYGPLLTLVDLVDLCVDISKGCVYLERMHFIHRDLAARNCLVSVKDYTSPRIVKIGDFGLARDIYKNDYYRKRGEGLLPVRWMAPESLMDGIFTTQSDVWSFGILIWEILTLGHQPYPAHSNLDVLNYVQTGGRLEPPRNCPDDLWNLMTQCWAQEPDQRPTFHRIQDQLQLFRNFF
Protocol: as §1, with “Then, a 12.5 μL kinase solution containing ALK-wt (1.5 nM, Carna, 08-518), ALK ALK L1196M/G1202R (3 nM, SignalChem, A19-12NG), ROS1-wt (0.6 nM, Carna, 08-163), ROS1-G2032R (0.5 nM, SignalChem, R14-12BG), or TRKA-wt (1 nM, BPS Bio, 40280) kinase domains in buffer (50 nM HEPES pH 7.5, 0.01% Brij-35, 2% glycerol, 0.4 mg/mL BSA, 0.5 mM EGTA, and 10 mM MgCl2) was added and mixed thoroughly.” left out

TRKA-wt = target: T5, TRKA-wt (Homo sapiens, UniProt P04629); experiment: Biochemical kinase assay, TRKA-wt kinase domain; details: apparent inhibitory constant, Morrison equation; ATP 2 mM in substrate solution; read-out: TRKA-wt Ki^app
T5 construct: or TRKA-wt (1 nM, BPS Bio, 40280) kinase domains in buffer; purchased BPS Bio 40280
T5 sequence (P04629 510-781 limits assumed): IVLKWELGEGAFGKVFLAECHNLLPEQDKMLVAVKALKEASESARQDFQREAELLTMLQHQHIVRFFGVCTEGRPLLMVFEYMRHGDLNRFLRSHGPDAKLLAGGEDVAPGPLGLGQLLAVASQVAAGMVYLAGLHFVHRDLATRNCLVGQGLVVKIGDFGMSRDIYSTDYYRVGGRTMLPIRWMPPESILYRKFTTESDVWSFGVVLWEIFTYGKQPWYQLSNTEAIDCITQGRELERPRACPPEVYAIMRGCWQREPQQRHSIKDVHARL
Protocol: as §1

[3] = target: T6, Ba/F3 cells CD74-ROS1 G2032R (Homo sapiens, UniProt P08922, G2032R); experiment: Ba/F3 cell proliferation assay, CD74-ROS1 G2032R; assay type: cell-based; details: 72 hours, CellTiter-Glo
T6 construct: fusion of the C-terminus of ROS1 with the N-terminus of various partner proteins; host or cells: Ba/F3 (RIKEN), retroviral pMSCV-puro; the other entry of the earlier key: CD74 (P04233, HLA class II histocompatibility antigen gamma chain)
T6 sequence (P08922 1883-2347 G2032R limits assumed): as the sequence (P08922 1883-2347 limits assumed) above, with G150R counted along it
In short: as §2

[4] = target: T7, Ba/F3 cells EML4-ALK wt (variant 1) (Homo sapiens, UniProt Q9UM73); experiment: Ba/F3 cell proliferation assay, EML4-ALK wt (variant 1); assay type: cell-based; details: 72 hours, CellTiter-Glo
T7 construct: echinoderm microtubule-associated protein-like 4 (EML4) gene and the ALK tyrosine kinase domain; host or cells: Ba/F3 (RIKEN), retroviral pMSCV-puro; the other entry of the earlier key: EML4 (Q9HC35, Echinoderm microtubule-associated protein-like 4)
T7 sequence (Q9UM73 with tags, fused parts or gaps): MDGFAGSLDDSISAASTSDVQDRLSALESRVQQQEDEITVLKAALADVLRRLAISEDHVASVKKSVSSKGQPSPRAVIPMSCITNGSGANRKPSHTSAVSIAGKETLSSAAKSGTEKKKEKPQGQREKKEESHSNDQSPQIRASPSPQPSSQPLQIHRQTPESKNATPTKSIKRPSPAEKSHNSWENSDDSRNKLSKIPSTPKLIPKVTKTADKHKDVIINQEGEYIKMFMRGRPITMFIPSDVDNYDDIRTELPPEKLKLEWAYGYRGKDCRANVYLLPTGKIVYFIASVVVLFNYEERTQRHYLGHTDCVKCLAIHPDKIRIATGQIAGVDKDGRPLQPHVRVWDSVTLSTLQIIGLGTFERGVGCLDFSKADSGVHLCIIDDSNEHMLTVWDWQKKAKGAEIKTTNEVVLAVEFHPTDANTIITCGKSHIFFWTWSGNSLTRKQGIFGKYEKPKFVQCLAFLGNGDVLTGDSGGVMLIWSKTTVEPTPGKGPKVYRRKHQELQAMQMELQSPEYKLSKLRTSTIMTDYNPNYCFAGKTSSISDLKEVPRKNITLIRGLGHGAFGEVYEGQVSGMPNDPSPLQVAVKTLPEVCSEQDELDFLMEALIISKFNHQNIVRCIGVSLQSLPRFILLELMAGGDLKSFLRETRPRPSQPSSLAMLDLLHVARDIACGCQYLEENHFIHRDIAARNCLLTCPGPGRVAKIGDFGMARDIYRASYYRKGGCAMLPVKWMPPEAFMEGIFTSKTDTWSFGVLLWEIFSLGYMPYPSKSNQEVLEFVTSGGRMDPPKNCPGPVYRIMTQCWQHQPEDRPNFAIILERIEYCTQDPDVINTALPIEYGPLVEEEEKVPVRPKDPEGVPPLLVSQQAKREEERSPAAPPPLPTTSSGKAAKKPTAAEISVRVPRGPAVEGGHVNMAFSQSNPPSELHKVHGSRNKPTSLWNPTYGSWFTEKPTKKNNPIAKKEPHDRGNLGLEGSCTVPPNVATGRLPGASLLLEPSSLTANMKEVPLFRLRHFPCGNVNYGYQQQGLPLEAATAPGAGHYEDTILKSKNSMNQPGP
In short: (§3)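 Luminescence from CellTiter-Glo after 72 hours of compound exposure measured viability of IL-3-independent Ba/F3 cells carrying the retrovirally introduced fusion. Cells were plated at 1,000 per well one day before 3-fold serial dilutions were added. IC50 values came from four-parameter logistic regression.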

[5] = target: T8, Ba/F3 cells EML4-ALK L1196M/G1202R (variant 1) (Homo sapiens, UniProt Q9UM73, G1202R/L1196M); experiment: Ba/F3 cell proliferation assay, EML4-ALK L1196M/G1202R (variant 1); assay type: cell-based; details: 72 hours, CellTiter-Glo
T8 construct: echinoderm microtubule-associated protein-like 4 (EML4) gene and the ALK tyrosine kinase domain; host or cells: Ba/F3 (RIKEN), retroviral pMSCV-puro; the other entry of the earlier key: EML4 (Q9HC35, Echinoderm microtubule-associated protein-like 4)
T8 sequence (Q9UM73 with tags, fused parts or gaps L1196M/G1202R): as the sequence (Q9UM73 with tags, fused parts or gaps) above, with L635M, G641R counted along it
In short: as §3

ROS1-G2032R = target: T9, ROS1-G2032R (Homo sapiens, UniProt P08922, G2032R); experiment: Biochemical kinase assay, ROS1-G2032R kinase domain; details: apparent inhibitory constant, Morrison equation; ATP 2 mM in substrate solution; read-out: ROS1-G2032R Ki^app
T9 construct: purchased SignalChem R14-12BG
T9 sequence (P08922 1945-2222 G2032R limits assumed): as the sequence (P08922 1945-2222 limits assumed) above, with G88R counted along it
Protocol: as §1, with “Then, a 12.5 μL kinase solution containing ALK-wt (1.5 nM, Carna, 08-518), ALK ALK L1196M/G1202R (3 nM, SignalChem, A19-12NG), ROS1-wt (0.6 nM, Carna, 08-163), ROS1-G2032R (0.5 nM, SignalChem, R14-12BG), or TRKA-wt (1 nM, BPS Bio, 40280) kinase domains in buffer (50 nM HEPES pH 7.5, 0.01% Brij-35, 2% glycerol, 0.4 mg/mL BSA, 0.5 mM EGTA, and 10 mM MgCl2) was added and mixed thoroughly.” left out

Ba/F3 cells TPM3-TRKA = target: T10, Ba/F3 cells TPM3-TRKA (Homo sapiens, UniProt P04629); experiment: Ba/F3 cell proliferation assay, TPM3-TRKA; assay type: cell-based; details: 72 hours, CellTiter-Glo, read-out: TPM3-NTRK1-wt IC50
T10 construct: host or cells: Ba/F3 (RIKEN), retroviral pMSCV-puro; the other entry of the earlier key: TPM3 (P06753, Tropomyosin alpha-3 chain)
T10 sequence (P04629 510-796 limits assumed): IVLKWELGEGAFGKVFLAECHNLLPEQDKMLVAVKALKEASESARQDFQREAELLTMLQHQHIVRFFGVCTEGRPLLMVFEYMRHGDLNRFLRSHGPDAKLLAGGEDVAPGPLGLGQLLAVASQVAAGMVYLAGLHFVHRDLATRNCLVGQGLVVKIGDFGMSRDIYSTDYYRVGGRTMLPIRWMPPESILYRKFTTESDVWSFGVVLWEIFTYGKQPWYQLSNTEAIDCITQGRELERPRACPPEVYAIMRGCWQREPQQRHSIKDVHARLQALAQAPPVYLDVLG
In short: as §3

T1 sequence (Q9UM73 1116-1392 limits assumed): as the sequence (Q9UM73 1116-1392 L1196M/G1202R limits assumed) above, with M81L, R87G counted along it

Structure (SMILES)	Ki (ALK-wt) [nM]	IC50 [1] [nM]	TPM3-NTRK1-wt/CD74-ROS1-G2032R selectivity ratio [2]	TPM3-NTRK1-wt/CD74-ROS1-wt selectivity ratio [2]	TPM3-NTRK1-wt/EML4-ALK-L1196M-G1202R selectivity ratio [2]	TPM3-NTRK1-wt/EML4-ALK-wt selectivity ratio [2]	Ki (ALK L1196M/G1202R) [nM]	Ki (ROS1-wt) [nM]	Ki (TRKA-wt) [nM]	IC50 [3] [nM]	IC50 [4] [nM]	IC50 [5] [nM]	Ki (ROS1-G2032R) [nM]	IC50 (Ba/F3 cells TPM3-TRKA) [nM]
C[C@H]1Oc2cc(cnc2N)-c2c(C#N)cnn2Cc2ncsc2-c2ccc(F)cc21 [Example 49, (19R)-22-amino-16-fluoro-19-methyl-20oxa-11-thia-5,6,9,23-tetraazapentacyclo[19.3.1.0^2,^6.0^8,^12.0^13,^18]pentacosa-1(24),2,4,8(12),9,13,15,17,21(25),22-decaene-3-carbonitrile]	< 50	0.1 to 50	B (bin B for high selectivity, ratio >10-fold)	A (bin A for very high selectivity, ratio >30-fold)	C (bin C for moderate selectivity, ratio ≥1)	A (bin A for very high selectivity, ratio >30-fold)	50 to 500	< 50	> 500	50 to 500	0.1 to 50	> 500	50 to 500	> 500
C[C@H]1Oc2cc(cnc2N)-c2c(cnn2CC(F)F)Cc2nn(C)nc2-c2ccc(F)cc21 [Example 24, (19R)-3-(2,2-difluoroethyl)-16-fluoro-10,19-dimethyl-20oxa3,4,9,10,11,23-hexaazapentacyclo[19.3.1.0^2,^6.0^8,^12.0^13,^18]pentacosa-1(24),2(6),4,8,11,13,15,17,21 (25),22-decaen-22-amine]	< 50	0.1 to 50	A (bin A for very high selectivity, ratio >30-fold)	A (bin A for very high selectivity, ratio >30-fold)	B (bin B for high selectivity, ratio >10-fold)	A (bin A for very high selectivity, ratio >30-fold)	< 50	< 50	> 500	0.1 to 50	0.1 to 50	50 to 500	< 50	> 500
C[C@H]1Oc2cc(cnc2N)-c2c(cnn2C2CCC2)Cn2ncnc2-c2ccc(F)cc21 [Example 39, (19R)-3-cyclobutyl-16-fluoro-19-methyl-20-oxa-3,4,8,9,11,23-hexaazapentacyclo[19.3.1.0^2,^6.0^8,^12.0^13,^18]pentacosa-1(24),2(6),4,9,11,13,15,17,21(25),22-decaen-22-amine]	< 50	0.1 to 50	A (bin A for very high selectivity, ratio >30-fold)	A (bin A for very high selectivity, ratio >30-fold)	B (bin B for high selectivity, ratio >10-fold)	A (bin A for very high selectivity, ratio >30-fold)	< 50	< 50	> 500	0.1 to 50	0.1 to 50	50 to 500	< 50	> 500
CCn1ncc2c1-c1cnc(N)c(c1)O[C@H](C)c1cc(F)ccc1-c1cnnn1C2 [Example 2, (19R)-3-ethyl-16-fluoro-19-methyl-20-oxa-3,4,8,9,10,23-hexaazapentacyclo[19.3.1.0^2,^6.0^8,^12.0^13,^18]pentacosa-1(24),2(6),4,9,11,13,15,17,21 (25),22-decaen-22-amine]	< 50		A (bin A for very high selectivity, ratio >30-fold)		C (bin C for moderate selectivity, ratio ≥1)		50 to 500	< 50	> 500	0.1 to 50		> 500	50 to 500	> 500
CCn1ncc2c1-c1cnc(N)c(c1)O[C@H](C)c1cc(F)ccc1-c1c(F)cnn1C2 [Example 8, (19R)-3-ethyl-11,16-difluoro-19-methyl-20-oxa-3,4,8,9,23-pentaazapentacyclo[19.3.1.0^2,^6.0^8,^12.0^13,^18]pentacosa-1(24),2(6),4,9,11,13,15,17,21(25),22-decaen-22-amine]	< 50		A (bin A for very high selectivity, ratio >30-fold)		C (bin C for moderate selectivity, ratio ≥1)		< 50	< 50	> 500	0.1 to 50		50 to 500	< 50	> 500

Source: US12054498B2, “Heteroaromatic macrocyclic ether chemotherapeutic agents” (Nuvalent, Inc., priority 2020, dated 2024)
